For data set [1], the system named is OC[C@H]1OC(O)[C@H](O)[C@@H](O)[C@@H]1O. Briefly: purified protein, by the assay type. Particulars: other: BotGLD, D-glucose varied, Hanes-Woolf plot, DCIP/1-m-PMS, pH 6.0, 37° C.
Procedure: (§3) Each solution was mixed according to the following procedures to measure the absorbance, thereby examining GLD activity.
(§4) Then, 0.05 mL of an enzyme sample was added to the mixture to start a reaction. The amount (ΔA600) of reduction in light absorbance per minute at 600 nm along with the progress of the enzymatic reaction was measured for 5 minutes from the start of the reaction to calculate GLD activity from the straight line part according to the equation 1. At this time, in the measurement of GLD activity, the amount of an enzyme reducing 1 μmol of DCIP at 37° C. and a pH of 6.0 for one minute was defined as 1 U.
(§5) In the above formula, 3.0 represents the amount (mL) of reaction reagent+oxygen solution, 10.8 represents the molar absorption coefficient (mM^−1 cm^−1) of DCIP at a pH of 6.0, 1.0 represents the optical path length (cm) of a cell, 0.05 represents the amount (mL) of the oxygen solution, ΔA600 blank represents a reduction in the amount of light absorbance per minute at 600 nm when the solution used to dilute the enzyme is added in place of the enzyme solution to start a reaction, and df represents a dilution ratio.
In data set [2] the test system is Ovulinia azaleae NBRC6610 flavin-binding glucose dehydrogenase OvGLD (B), purified, wild type, SEQ ID NO: 6 (without signal sequence SEQ ID NO: 14). Briefly: Inhibitive effect of 1,10-phenanthroline, OvGLD. The format is biochemical. Particulars: methanol only = 0%. The method, then:
(§1) The enzymatic activity of each of the purified GLDs (A) to (F) was measured when 1,10-phenanethroline dissolved in methanol was added such that its final concentration was 2 mM, 5 mM or 10 mM in the above method for measuring enzymatic activity. The inhibitive effect obtained when only methanol was added was defined as 0% to find the inhibitive effect of 1,10-phenanthroline at each concentration. The obtained results are shown collectively as the inhibitive effect of 1,10-phenanthroline in Table 4.

Data set [3] relates to Botrytis fabae NBRC7171 flavin-binding glucose dehydrogenase BoGLD (D), purified, wild type. Nature of the data set: Inhibitive effect of 1,10-phenanthroline, BoGLD. Type of data set: biochemical. Particulars: methanol only = 0%. The method, then:
as §1

Data set [4] deals with Ciborinia camelliae NBRC103663 flavin-binding glucose dehydrogenase CiGLD (F), purified from A. oryzae NS4 with CiGLD-Atsig modified gene, SEQ ID NO: …. Briefly: Inhibitive effect of 1,10-phenanthroline, CiGLD. The format is biochemical. The note with it: methanol only = 0%. The method, then: as §1
The target of data set [5] is T1, Botrytis tulipae NBRC5896 flavin-binding glucose dehydrogenase BotGLD (E), purified from A. oryzae NS4 with BotGLD-Atsig modified gene, SEQ ID NO: 4 (without signal sequence SEQ ID NO: 12) (Botrytis tulipae, UniProt A0A4Z1FFJ6).
T1 construct: up to three extra N-terminal residues possible
T1 sequence (A0A4Z1FFJ6 17-589, added parts left off): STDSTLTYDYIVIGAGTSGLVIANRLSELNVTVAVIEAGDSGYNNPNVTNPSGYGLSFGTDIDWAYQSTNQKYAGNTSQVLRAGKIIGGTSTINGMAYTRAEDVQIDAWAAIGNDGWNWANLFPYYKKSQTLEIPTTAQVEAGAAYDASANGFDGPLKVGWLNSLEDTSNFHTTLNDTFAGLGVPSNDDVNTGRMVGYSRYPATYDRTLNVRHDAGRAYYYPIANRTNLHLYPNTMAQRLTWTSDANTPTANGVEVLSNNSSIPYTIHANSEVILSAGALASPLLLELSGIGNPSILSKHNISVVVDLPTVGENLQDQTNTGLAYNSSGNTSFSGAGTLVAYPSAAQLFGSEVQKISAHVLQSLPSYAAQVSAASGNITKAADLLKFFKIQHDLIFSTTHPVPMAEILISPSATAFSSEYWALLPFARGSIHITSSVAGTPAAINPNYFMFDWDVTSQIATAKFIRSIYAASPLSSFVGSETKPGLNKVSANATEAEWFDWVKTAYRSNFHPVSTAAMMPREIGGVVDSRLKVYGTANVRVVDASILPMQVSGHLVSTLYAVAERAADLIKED
Nature of the data set: Inhibitive effect of 1,10-phenanthroline, BotGLD. Type of data set: biochemical. The method, then:
as §1

Data set [6] has as its system Sclerotinia sclerotiorum NBRC103652 flavin-binding glucose dehydrogenase ScGLD (C), purified, wild type. Nature of the data set: Inhibitive effect of 1,10-phenanthroline, ScGLD. Type of data set: biochemical. The note with it: methanol only = 0%. The protocol:
(§2) After the column was washed with the buffer solution C2, a protein was eluted with linear gradient of a buffer solution D3 (500 mM potassium phosphate buffer solution, pH 7.0) in the buffer solution C2.
as §1

The subject of data set [7] is Dumontinia tuberosa NBRC30254 flavin-binding glucose dehydrogenase DuGLD (A), purified, wild type, SEQ ID NO: 2 (without signal sequence SEQ ID NO: 10). Nature of the data set: Inhibitive effect of 1,10-phenanthroline, DuGLD. The format is biochemical. The note with it: methanol only = 0%. The method, then:
as §1

Data set [8] has as its system Botrytis fabae NBRC7171 flavin-binding glucose dehydrogenase BoGLD (D), purified, wild type. Particulars: read-out: Km value, D-glucose varied, Hanes-Woolf plot, DCIP/1-m-PMS, pH 6.0, 37° C. The source says: The transmitted active fraction was combined with the active fraction eluted after adsorbed and these fractions were concentrated and dialyzed against the buffer solution C3.

The test system of data set [9] is Ovulinia azaleae NBRC6610 flavin-binding glucose dehydrogenase OvGLD (B), purified, wild type, SEQ ID NO: 6 (without signal sequence SEQ ID NO: 14). The note with it: read-out: Km value, D-glucose varied, Hanes-Woolf plot, DCIP/1-m-PMS, pH 6.0, 37° C.
Procedure: as §3, §4, §5
For data set [10], the system named is Ciborinia camelliae NBRC103663 flavin-binding glucose dehydrogenase CiGLD (F), purified from A. oryzae NS4 with CiGLD-Atsig modified gene, SEQ ID NO: …. The note with it: read-out: Km value, D-glucose varied, Hanes-Woolf plot, DCIP/1-m-PMS, pH 6.0, 37° C.
Procedure: as §3, §4, §5
Among the eluted protein, an active fraction was concentrated and desalted to obtain a purified enzyme of GLD derived from the genus Ciborinia substituted with water.
The subject of data set [11] is Sclerotinia sclerotiorum NBRC103652 flavin-binding glucose dehydrogenase ScGLD (C), purified, wild type. Briefly: Km value to D-glucose (Hanes-Woolf plot), ScGLD. Type of data set: biochemical. Particulars: D-glucose varied, DCIP/1-m-PMS, pH 6.0, 37° C. The protocol:
as §2

Like-named read-outs stand apart in the source and are kept apart here.

On to “Botrytis tulipae NBRC5896 flavin-binding glucose dehydrogenase BotGLD (E), purified from A. oryzae NS4 with BotGLD-Atsig modified gene, SEQ ID NO: 4 (without signal sequence SEQ ID NO: 12) (Botrytis tulipae)”, for which, in [1], the Km is 36.2 mM.
On to `c1cnc2c(c1)ccc1cccnc12` [1,10-phenanthroline], for which the Inhibitive effect in data set [2] (final concentration 2 mM) was 34.1%; in data set [2] (final concentration 5 mM), 51.7%; in [2] (final concentration 10 mM), 65.1%; in [3] (final concentration 2 mM), 10.4%; in data set [3] (final concentration 5 mM), 15.9%; in data set [3] (final concentration 10 mM), 28.5%. The Inhibitive effect in [4] (final concentration 2 mM) amounted to 6.34%; in data set [4] (final concentration 5 mM) it was 14.7%; in data set [4] (final concentration 10 mM), 32.7%; in data set [6] (final concentration 2 mM), 5.28%; in data set [6] (final concentration 5 mM) it was 18.4%; in data set [6] (final concentration 10 mM) it was 32.3%. The Inhibitive effect in data set [7] (final concentration 2 mM) is recorded as 20.4%; in data set [7] (final concentration 5 mM), 30.1%; in data set [7] (final concentration 10 mM) it was 42.3%. Besides, the inhibition at 2000 µM in [5] (BotGLD, final concentration 2 mM, methanol only = 0%, read-out: Inhibitive effect) is 33.5%; in [5] (DuGLD, OvGLD and BotGLD together, 2 mM, read-out: Inhibitive effect (summary range)), 20 to 34%. In addition, in [5] (BotGLD, final concentration 5 mM, methanol only = 0%), the inhibition at 5000 µM came out at 38.6%. For the same compound, in data set [5] (BotGLD, final concentration 10 mM, methanol only = 0%), the inhibition at 10000 µM was 75.4%.
Consider `OC[C@H]1OC(O)[C@H](O)[C@@H](O)[C@@H]1O` (stereo partly drawn) [D-glucose], for which the Km stood at 35 mM in data set [8], 22.8 mM in data set [9], 5.44 mM in data set [10] and 16.7 mM in [11].

The values above are taken from patent US8945359B2, “Flavin-binding glucose dehydrogenase” (Ikeda Food Research Co., Ltd., priority 2011, dated 2015).
